Tests used:
[1] = system: patients with chronic constipation; settings: two trials versus placebo; cited from earlier work
[2] = system: patients with functional constipation; test: Randomized, dose escalation, placebo controlled clinical study; assay type: in vivo, human; settings: daily diaries, dose escalation phase (25, 50, 100 mg once daily)
Excerpt: A randomized, dose escalation, placebo controlled study is designed to assess the efficacy of the administered formulation in 60 to 120 patients with functional constipation, defined using the Rome II criteria (modified), i.e., at least […] of two or more of the following symptoms: • i. Straining in >25% of defecations; • ii. Lumpy or hard stools in >25% of defecations; • iii. Sensation of incomplete evacuation in >25% of defecations; • iv. Sensation of anorectal obstruction/blockage in >25% of defecations; • v. Manual maneuvers to facilitate >25%, of defecations (e.g. digital evacuation, support of pelvic floor); and/or • vi. <3 evacuations per week. In addition, loose stools are not present, and there are insufficient criteria for a diagnosis of IBS. Moreover, these patients have no evidence of medical disorders that may cause constipation. Patients are symptomatic on entry in the randomization phase of the study, i.e., in the 8-14 day run-in period, on at least 8 days, which need not be consecutive, patients have lumpy or hard stools in >25% of defecations.
Patients are randomized to one of three groups:
Patients randomized to receive treatments a) or b) will receive 25 mg once daily for the first four weeks, 50 mg once daily for the following four weeks and 100 mg once daily for a further four weeks, providing the previous dose was well tolerated. […]

[3] = primarily as inactive metabolites; cited from earlier work
[4] = system: women patients with IBS-C; settings: 6 mg twice daily; cited from earlier work

SMILES: OC[C@H]1O[C@@H](O[C@@H]2[C@@H](CO)OC(O)(CO)[C@H]2O)[C@H](O)[C@@H](O)[C@H]1O (mixture of isomers) [lactulose]
- stool frequency and consistency [1]: more effective than placebo

SMILES: CN(C)C(=N)N=C(N)N [metformin]
- patient's global impression: answer 'yes' to "do you feel better now after treatment" [2]: at least 50 % of the time

SMILES: C[C@H]1O[C@H](O[C@H]2[C@H](O)[C@@H](O)[C@@H](O[C@H]3[C@H](O)[C@@H](O)C(O)O[C@@H]3CO)O[C@@H]2CO)[C@H](O)[C@@H](O)[C@@H]1N[C@H]1C=C(CO)[C@@H](O)[C@H](O)[C@H]1O (stereo partly shown) [acarbose]
- oral dose absorbed [3]: About 35%

SMILES: CCCCCNC(=N)N/N=C/c1c[nH]c2ccc(OC)cc12.O=C(O)/C=C\C(=O)O [tegaserod, 3-(5-methoxy-1H-indol-3-ylmethylene)-N-pentylcarbazimidamide hydrogen maleate]
- global and individual symptoms [4]: effectively improves global and individual symptoms

Reference: US20060229261A1 (priority 2005, published 2006)
